Source: patent US8728754B1, “Use of proteins isolated from Pseudomonas to control molluscs” (priority 2013, dated 2014)

Experiments:
mussels = experiment: Mussel bioassay in scintillation vials; format: in vivo
Experimental: Mussel bioassays were performed in twenty milliliter scintillation vials. Ten small mussels (approximately 1 cm long) were incubated in the mussel water (10 mL) for 24 hr first, then the mussel water (10 mL) was changed freshly before test cell lysis was added. Cell lysis or proteins (maximal 500 μL) was added into each vial. After 24 hr, the mussel water with cell lysis or proteins was changed with clean mussel water. Then, mussel water was changed every 24 hr with clean mussel water. Dead mussels were taken away every day and mussel mortality was calculated by number of dead mussel divided by the number of total mussels.

CL145A (ATCC 55799) = experiment: Antibiotic resistance profile (antibiotic discs on Mueller-Hinton Agar); details: for Suppresses growth of CL145A: 25° C., 72 hours; for CL145A resistant or sensitive to the antibiotic: antibiotic disc, 72 hours incubation
Experimental: One glycerol stock vial of CL145A was equally distributed onto Mueller-Hinton Agar plates (100 μl per plate) and spread on the plate using a sterile cell spreader. Antibiotic discs were then placed onto the plates along with a blank sterile disc. Plates were incubated at 25° C. in the dark for 72 hours.

Compound | Suppresses growth of CL145A (CL145A (ATCC 55799); 10 μg disc) | CL145A resistant or sensitive to the antibiotic (CL145A (ATCC 55799)) | also measured
fumarate hydratase Class II (or fumarase) [Protein B] |  |  | Mussel mortality at 7th day (mussels; 4 ppm, 7th day): 60%; Activity in mussel bioassay of proteins and fractions dosed after gel analysis (mussels; in vivo): active
Gentamicin | Yes | sensitive | 
Penicillin | No | resistant | 
CC[C@H]1OC(=O)[C@H](C)[C@@H](O[C@H]2C[C@@](C)(OC)[C@@H](O)[C@H](C)O2)[C@H](C)[C@@H](O[C@@H]2O[C@H](C)C[C@H](N(C)C)[C@H]2O)[C@](C)(O)C[C@@H](C)C(=O)[C@H](C)[C@@H](O)[C@]1(C)O [Erythromycin] |  | resistant | Suppresses growth of CL145A (CL145A (ATCC 55799); 15 μg disc): No
Sulphamethoxazole-Trimethoprim |  | sensitive | Suppresses growth of CL145A (CL145A (ATCC 55799); 23.75/25 μg disc): Yes
CCN1CCN(C(=O)N[C@@H](C(=O)N[C@@H]2C(=O)N3[C@@H]2SC(C)(C)[C@@H]3C(=O)O)c2ccccc2)C(=O)C1=O [Piperacillin] |  | sensitive | Suppresses growth of CL145A (CL145A (ATCC 55799); 100 μg disc): Yes
O=C(N[C@H](CO)[C@H](O)c1ccc([N+](=O)[O-])cc1)C(Cl)Cl [Chloramphenicol] |  | resistant | Suppresses growth of CL145A (CL145A (ATCC 55799); 30 μg disc): No
CC1(C)S[C@@H]2[C@H](NC(=O)[C@H](N)c3ccccc3)C(=O)N2[C@H]1C(=O)O [Ampicillin] | No | resistant | 
CO/N=C(\C(=O)N[C@@H]1C(=O)N2C(C(=O)O)=C(COC(N)=O)CS[C@H]12)c1ccco1 [Cefuroxime] |  | resistant | Suppresses growth of CL145A (CL145A (ATCC 55799); 30 μg disc): No
[H]/N=C(/N)N[C@H]1[C@H](O)[C@@H](O)[C@H](O[C@@H]2O[C@@H](C)[C@](O)(C=O)[C@H]2O[C@@H]2O[C@@H](CO)[C@H](O)[C@@H](O)[C@@H]2NC)[C@@H](N/C(N)=N\[H])[C@@H]1O [Streptomycin] | No | resistant | 
